In ChEMBL document CHEMBL1275533, “In vitro antibacterial activity of vertilmicin and its susceptibility to modifications by the recombinant AAC6'-APH2'' enzyme” (2008):
≈ marks a conversion by molar mass, not a printed value. Calls of active or inactive are those of the source. No cut-off for these calls is given here.

Columns and labels:
[1] = system: Citrobacter freundii; test: Antibacterial activity against gentamicin-resistant Citrobacter freundii clinical isolate assessed as susceptible isolates after 18 hrs by agar dilution method; format: functional
[2] = system: Morganella morganii; test: Antibacterial activity against gentamicin-resistant Morganella morganii clinical isolate assessed as susceptible isolates after 18 hrs by agar dilution method; format: functional
[3] = system: Serratia marcescens; test: Antibacterial activity against gentamicin-resistant Serratia marcescens clinical isolate assessed as susceptible isolates after 18 hrs by agar dilution method; format: functional
[4] = system: Escherichia coli; test: Antibacterial activity against non-gentamicin-resistant Escherichia coli clinical isolate assessed as susceptible isolates after 18 hrs by agar dilution method; format: functional
[5] = system: Pseudomonas aeruginosa; test: Antibacterial activity against gentamicin-resistant Pseudomonas aeruginosa clinical isolate assessed as susceptible isolates after 18 hrs by agar dilution method; format: functional
[6] = system: Escherichia coli; test: Antibacterial activity against gentamicin-resistant Escherichia coli clinical isolate after 18 hrs by agar dilution method; format: functional
[7] = system: Staphylococcus epidermidis; test: Antibacterial activity against non-gentamicin-resistant Staphylococcus epidermidis clinical isolate assessed as susceptible isolates after 18 hrs by agar dilution method; format: functional
[8] = system: Citrobacter freundii; test: Antibacterial activity against gentamicin-resistant Citrobacter freundii clinical isolate after 18 hrs by agar dilution method; format: functional
[9] = system: Proteus mirabilis; test: Antibacterial activity against gentamicin-resistant Proteus mirabilis clinical isolate after 18 hrs by agar dilution method; format: functional
[10] = system: Pseudomonas aeruginosa; test: Antibacterial activity against non-gentamicin-resistant Pseudomonas aeruginosa clinical isolate after 18 hrs by agar dilution method; format: functional
[11] = system: Escherichia coli BL21(DE3); test: Acetylation activity of AAC(6')-APH(2'') in Escherichia coli BL21(DE3) assessed as production of free pyridine-4-thiolate
[12] = system: Providencia rettgeri; test: Antibacterial activity against gentamicin-resistant Proteus rettgeri clinical isolate after 18 hrs by agar dilution method; format: functional
[13] = system: Proteus mirabilis; test: Antibacterial activity against non-gentamicin-resistant Proteus mirabilis clinical isolate after 18 hrs by agar dilution method; format: functional
[14] = system: Staphylococcus epidermidis; test: Antibacterial activity against gentamicin-resistant Staphylococcus epidermidis clinical isolate assessed as susceptible isolates after 18 hrs by agar dilution method; format: functional
[15] = system: Haemophilus parainfluenzae; test: Antibacterial activity against non-gentamicin-resistant Haemophilus parainfluenzae clinical isolate assessed as susceptible isolates after 18 hrs by agar dilution method; format: functional, organism-based
[16] = system: Pseudomonas sp.; test: Antibacterial activity against non-gentamicin-resistant Pseudomonas spp. clinical isolate assessed as susceptible isolates after 18 hrs by agar dilution method; format: functional
[17] = system: Citrobacter koseri; test: Antibacterial activity against gentamicin-resistant Citrobacter diversus clinical isolate after 18 hrs by agar dilution method; format: functional
[18] = system: Haemophilus influenzae; test: Antibacterial activity against non-gentamicin-resistant Haemophilus influenzae clinical isolate after 18 hrs by agar dilution method; format: functional
[19] = system: Enterobacter cloacae; test: Antibacterial activity against non-gentamicin-resistant Enterobacter cloacae clinical isolate assessed as susceptible isolates after 18 hrs by agar dilution method; format: functional
[20] = system: Citrobacter koseri; test: Antibacterial activity against non-gentamicin-resistant Citrobacter diversus clinical isolate after 18 hrs by agar dilution method; format: functional
[21] = system: Klebsiella aerogenes; test: Antibacterial activity against non-gentamicin-resistant Enterobacter aerogenes clinical isolate assessed as susceptible isolates after 18 hrs by agar dilution method; format: functional
[22] = system: Escherichia coli; test: Antibacterial activity against non-gentamicin-resistant Escherichia coli clinical isolate after 18 hrs by agar dilution method; format: functional
[23] = system: Serratia marcescens; test: Antibacterial activity against gentamicin-resistant Serratia marcescens clinical isolate after 18 hrs by agar dilution method; format: functional
[24] = system: Haemophilus parainfluenzae; test: Antibacterial activity against non-gentamicin-resistant Haemophilus parainfluenzae clinical isolate after 18 hrs by agar dilution method; format: functional
[25] = system: Proteus mirabilis; test: Antibacterial activity against gentamicin-resistant Proteus mirabilis clinical isolate assessed as susceptible isolates after 18 hrs by agar dilution method; format: functional
[26] = system: Staphylococcus epidermidis; test: Antibacterial activity against gentamicin-resistant Staphylococcus epidermidis clinical isolate after 18 hrs by agar dilution method; format: functional
[27] = system: Staphylococcus aureus; test: Antibacterial activity against non-gentamicin-resistant Staphylococcus aureus clinical isolate assessed as susceptible isolates after 18 hrs by agar dilution method; format: functional
[28] = system: Citrobacter freundii; test: Antibacterial activity against non-gentamicin-resistant Citrobacter freundii clinical isolate after 18 hrs by agar dilution method; format: functional
[29] = system: Klebsiella aerogenes; test: Antibacterial activity against gentamicin-resistant Enterobacter aerogenes clinical isolate assessed as susceptible isolates after 18 hrs by agar dilution method; format: functional
[30] = system: Acinetobacter calcoaceticus; test: Antibacterial activity against gentamicin-resistant Acinetobacter calcoaceticus clinical isolate assessed as susceptible isolates after 18 hrs by agar dilution method; format: functional
[31] = system: Enterobacter cloacae; test: Antibacterial activity against gentamicin-resistant Enterobacter cloacae clinical isolate assessed as susceptible isolates after 18 hrs by agar dilution method; format: functional
[32] = system: Enterococcus faecalis; test: Antibacterial activity against gentamicin-resistant Enterococcus faecalis clinical isolate assessed as susceptible isolates after 18 hrs by agar dilution method; format: functional, organism-based
[33] = system: Pseudomonas sp.; test: Antibacterial activity against gentamicin-resistant Pseudomonas spp. clinical isolate assessed as susceptible isolates after 18 hrs by agar dilution method; format: functional
[34] = system: Morganella morganii; test: Antibacterial activity against gentamicin-resistant Morganella morganii clinical isolate after 18 hrs by agar dilution method; format: functional
[35] = system: Staphylococcus aureus; test: Antibacterial activity against gentamicin-resistant Staphylococcus aureus clinical isolate assessed as susceptible isolates after 18 hrs by agar dilution method; format: functional
[36] = system: Proteus mirabilis; test: Antibacterial activity against non-gentamicin-resistant Proteus mirabilis clinical isolate assessed as susceptible isolates after 18 hrs by agar dilution method; format: functional
[37] = system: Pseudomonas aeruginosa; test: Antibacterial activity against non-gentamicin-resistant Pseudomonas aeruginosa clinical isolate assessed as susceptible isolates after 18 hrs by agar dilution method; format: functional
[38] = system: Citrobacter koseri; test: Antibacterial activity against non-gentamicin-resistant Citrobacter diversus clinical isolate assessed as susceptible isolates after 18 hrs by agar dilution method; format: functional
[39] = system: Morganella morganii; test: Antibacterial activity against non-gentamicin-resistant Morganella morganii clinical isolate after 18 hrs by agar dilution method; format: functional
[40] = system: Enterobacter cloacae; test: Antibacterial activity against gentamicin-resistant Enterobacter cloacae clinical isolate after 18 hrs by agar dilution method; format: functional
[41] = system: Providencia rettgeri; test: Antibacterial activity against non-gentamicin-resistant Proteus rettgeri clinical isolate after 18 hrs by agar dilution method; format: functional
[42] = system: Klebsiella aerogenes; test: Antibacterial activity against non-gentamicin-resistant Enterobacter aerogenes clinical isolate after 18 hrs by agar dilution method; format: functional
[43] = system: Escherichia coli BL21(DE3); test: Phosphorylation activity of AAC(6')-APH(2'') in Escherichia coli BL21(DE3) assessed as oxidation of NADH by pyruvate kinase
[44] = system: Providencia rettgeri; test: Antibacterial activity against gentamicin-resistant Proteus rettgeri clinical isolate assessed as susceptible isolates after 18 hrs by agar dilution method; format: functional
[45] = system: Citrobacter koseri; test: Antibacterial activity against gentamicin-resistant Citrobacter diversus clinical isolate assessed as susceptible isolates after 18 hrs by agar dilution method; format: functional
[46] = system: Escherichia coli; test: Antibacterial activity against gentamicin-resistant Escherichia coli clinical isolate assessed as susceptible isolates after 18 hrs by agar dilution method; format: functional
[47] = system: Staphylococcus aureus; test: Antibacterial activity against gentamicin-resistant Staphylococcus aureus clinical isolate after 18 hrs by agar dilution method; format: functional

## CN[C@@H]1[C@@H](O)[C@@H](O[C@@H]2[C@@H](O)[C@H](O[C@@H]3OC(C(C)N)=CC[C@@H]3N)[C@@H](N)C[C@H]2N)OC[C@]1(C)O (stereo partly drawn) [VERDAMICIN]
[1]
  Activity: 26.3%
[2]
  Activity: 8.3%
[3]
  Activity: 10%
[4]
  Activity: 98.1%
[5]
  Activity: 2.9%
[6]
  MIC50: 32 µg/mL (≈ 69.3 µM)
  MIC90: 128 µg/mL (≈ 277 µM)
[7]
  Activity: 75%
[8]
  MIC50: 32 µg/mL (≈ 69.3 µM)
  MIC90: > 128 µg/mL
[9]
  MIC50: > 128 µg/mL
  MIC90: > 128 µg/mL
[10]
  MIC50: 8 µg/mL (≈ 17.3 µM)
  MIC90: 16 µg/mL (≈ 34.7 µM)
[11]
  Km: 656 µM
[12]
  MIC50: 32 µg/mL (≈ 69.3 µM)
  MIC90: 128 µg/mL (≈ 277 µM)
[13]
  MIC50: 1 µg/mL (≈ 2.17 µM)
  MIC90: 2 µg/mL (≈ 4.33 µM)
[14]
  Activity: 50%
[15]
  Activity: inactive
[16]
  Activity: 100%
[17]
  MIC50: > 128 µg/mL
  MIC90: > 128 µg/mL
[18]
  MIC50: 1 µg/mL (≈ 2.17 µM)
  MIC90: 1 µg/mL (≈ 2.17 µM)
[19]
  Activity: 98.2%
[20]
  MIC: 0.25 µg/mL (≈ 0.542 µM)
  MIC50: 0.25 µg/mL (≈ 0.542 µM)
  MIC90: 0.5 µg/mL (≈ 1.08 µM)
[21]
  Activity: 98.1%
[22]
  MIC50: 0.5 µg/mL (≈ 1.08 µM)
  MIC90: 0.5 µg/mL (≈ 1.08 µM)
[23]
  MIC50: > 128 µg/mL
  MIC90: > 128 µg/mL
[24]
  MIC50: 1 µg/mL (≈ 2.17 µM)
  MIC90: 2 µg/mL (≈ 4.33 µM)
[25]
  Activity: 18.2%
[26]
  MIC50: 8 µg/mL (≈ 17.3 µM)
  MIC90: > 128 µg/mL
[27]
  Activity: 94.8%
[28]
  MIC50: 0.5 µg/mL (≈ 1.08 µM)
  MIC90: 64 µg/mL (≈ 139 µM)
[29]
  Activity: 0%
[30]
  Activity: 16%
[31]
  Activity: 5.3%
[32]
  Activity: inactive
[33]
  Activity: 3.8%
[34]
  MIC50: 64 µg/mL (≈ 139 µM)
  MIC90: 128 µg/mL (≈ 277 µM)
[35]
  Activity: 5.6%
[36]
  Activity: 100%
[37]
  Activity: 86.9%
[38]
  Activity: 100%
[39]
  MIC50: 1 µg/mL (≈ 2.17 µM)
  MIC90: 2 µg/mL (≈ 4.33 µM)
[40]
  MIC50: 128 µg/mL (≈ 277 µM)
  MIC90: > 128 µg/mL
[41]
  MIC50: 2 µg/mL (≈ 4.33 µM)
  MIC90: 8 µg/mL (≈ 17.3 µM)
[42]
  MIC50: 0.5 µg/mL (≈ 1.08 µM)
  MIC90: 1 µg/mL (≈ 2.17 µM)
[43]
  Km: 41.4 µM
[44]
  Activity: 20%
[45]
  Activity: 0%
[46]
  Activity: 3.5%
[47]
  MIC50: 32 µg/mL (≈ 69.3 µM)
  MIC90: > 128 µg/mL
